How the values were obtained:
[1] = tested on: K562/DOX cells; experiment: Doxorubicin cytotoxicity enhancement assay (MTT); format: cell-based, human; details: 72 h
Procedure: K562 is a highly undifferentiated erythroleukemia cell line. The doxorubicin-resistant K562/DOX cells overexpress almost exclusively the transporter membrane protein P-gp.
K562/DOX cells were incubated for 72 h with different concentrations of doxorubicin in combination with 1 or 3 µM of all compounds. […] HT29, A549, HT29/DOX and A549/DOX cells were incubated for 48 h with 5 µM doxorubicin, alone or in combination with 1 or 3 µM of selected compounds. Cell viability of the cell lines was measured by the MTT assay, using a Synergy HT microplate spectrofluorometer (Bio-Tek Instruments, Winooski, VT, USA). The absorbance of untreated cells was considered 100%; results were expressed as a percentage of viable treated cells versus the control untreated cells.

[2] = biological target: T1, hCA XII (Homo sapiens, UniProt O43570); experiment: CA inhibition, stopped-flow CO2 hydrase assay; format: biochemical; details: stopped-flow technique; incubation time 6 h; mean of 3 assays
T1 construct: made in house
Procedure: (§1) Four hCA isoforms were used in this assay: the cytosolic hCA I and II and the tumor-associated transmembrane hCA IX and XII isoforms. Acetazolamide (AAZ) was used as a standard inhibitor.
(§2) An SX.18MV-R Applied Photophysics (Oxford, UK) stopped-flow instrument has been used to assay the catalytic/inhibition of various CA isozymes. […] Saturated CO2 solutions in water at 25 °C were used as substrate. Stock solutions of inhibitors were prepared at a concentration of 10 μM (in DMSO-water 1:1, v/v) and dilutions up to 0.01 nM were carried out with the assay buffer mentioned above. […] Inhibitor and enzyme solutions were preincubated together for 6 h at room temperature prior to assay in order to allow for the formation of the E-I complex. […] The inhibition constants were obtained by non-linear least-squares methods using the Cheng–Prusoff equation, as reported earlier, and represent the mean from at least three different determinations.

[3] = biological target: T2, hCA II (Homo sapiens, UniProt P00918); experiment: CA inhibition, stopped-flow CO2 hydrase assay; format: biochemical; details: stopped-flow technique; incubation time 6 h; mean of 3 assays
T2 construct: made in house
Procedure: as §1, §2

[4] = biological target: T3, hCA IX (Homo sapiens, UniProt Q16790); experiment: CA inhibition, stopped-flow CO2 hydrase assay; format: biochemical; details: stopped-flow technique; incubation time 6 h; mean of 3 assays
T3 construct: made in house
Procedure: as §1, §2

[5] = biological target: T4, hCA I (Homo sapiens, UniProt P00915); experiment: CA inhibition, stopped-flow CO2 hydrase assay; format: biochemical; details: stopped-flow technique; incubation time 6 h; mean of 3 assays
T4 construct: made in house
Procedure: as §1, §2

[6] = tested on: HT29/DOX cells; experiment: Intrinsic cytotoxicity (MTT); format: cell-based, human; details: compound alone at 1 µM; HT29/DOX; 48 h
Procedure: (§3) All compounds were preliminarily studied to evaluate their intrinsic cytotoxicity at different concentrations (from 10 nM to 50 µM) in the parental HT29 and A549 and the resistant HT29/DOX and A549/DOX cells using the MTT assay.
(§4) The intrinsic toxicity of the studied compounds was determined by an MTT assay. K562 and K562/DOX were exposed for 72 h with compounds at 1 and 3 µM concentrations while HT29, A549, HT29/DOX and A549/DOX cells were incubated for 48 h with compounds used at different concentrations (from 10 nM to 50 µM). The percentage of growth compared to the untreated control was transformed into histograms with the GraphPad Prism 5 program. […]

[7] = tested on: A549/DOX cells; experiment: Intrinsic cytotoxicity (MTT); format: cell-based, human; details: compound alone at 1 µM; A549/DOX; 48 h
Procedure: as §3, §4

T4 sequence (P00915 whole entry): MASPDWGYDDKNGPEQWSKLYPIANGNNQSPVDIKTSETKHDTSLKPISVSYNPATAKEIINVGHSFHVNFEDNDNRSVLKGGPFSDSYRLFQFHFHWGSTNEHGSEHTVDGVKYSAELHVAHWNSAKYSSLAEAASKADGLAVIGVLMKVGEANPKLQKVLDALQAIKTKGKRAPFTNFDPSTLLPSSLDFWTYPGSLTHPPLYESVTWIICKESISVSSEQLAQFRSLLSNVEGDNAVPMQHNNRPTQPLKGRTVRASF
T1 sequence (O43570 25-354): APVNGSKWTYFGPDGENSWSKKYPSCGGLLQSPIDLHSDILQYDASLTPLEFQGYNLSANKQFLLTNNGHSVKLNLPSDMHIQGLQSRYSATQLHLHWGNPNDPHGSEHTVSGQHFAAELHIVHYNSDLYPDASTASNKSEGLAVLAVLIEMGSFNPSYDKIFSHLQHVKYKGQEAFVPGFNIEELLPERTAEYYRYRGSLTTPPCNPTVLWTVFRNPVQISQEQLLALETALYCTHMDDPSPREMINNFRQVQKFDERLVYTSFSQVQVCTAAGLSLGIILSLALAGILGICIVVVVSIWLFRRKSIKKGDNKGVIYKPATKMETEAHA

| Ki [2] [nM] | Ki [3] [nM] | Ki [4] [nM] | Ki [5] [nM] | Structure (SMILES) | RF (Reversal Fold: IC50 of doxorubicin alone / in presence of modulator) ([1]; compound at 1 µM) | RF (Reversal Fold: IC50 of doxorubicin alone / in presence of modulator) ([1]; compound at 3 µM) | toxicity [6] [%] | toxicity [7] [%] |
| --- | --- | --- | --- | --- | --- | --- | --- | --- |
| 115 | > 10000 | 153 | > 10000 | COc1ccc(C(CCCN2CCN(CCCOc3ccc4ccc(=O)oc4c3)CC2)c2ccc(OC)cc2)cc1 [Compound 26, 7-(3-(4-(4,4-Bis(4-methoxyphenyl)butyl)piperazin-1-yl)propoxy)-2H-chromen-2-one] | 5.5 | 17.3 | – | – |
| 422 | > 10000 | 360 | > 10000 | COc1cc(/C=C/CN2CCN(CCOc3ccc4oc(=O)cc(C)c4c3)CC2)cc(OC)c1OC [Compound 10, (E)-4-Methyl-6-(2-(4-(3-(3,4,5-trimethoxyphenyl)allyl)piperazin-1-yl)ethoxy)-2H-chromen-2-one] | 1.0 | 1.4 | – | – |
| 851 | > 10000 | 666 | > 10000 | COc1ccc(C(CCCN2CCN(CCOc3ccc4oc(=O)cc(C)c4c3)CC2)c2ccc(OC)cc2)cc1 [Compound 34, 6-(2-(4-(4,4-Bis(4-methoxyphenyl)butyl)piperazin-1-yl)ethoxy)-4-methyl-2H-chromen-2-one] | 5.7 | 14.3 | – | – |
| 103 | > 10000 | 135 | > 10000 | COc1ccc(C(CCCN2CCN(CCOc3ccc4c(C)cc(=O)oc4c3)CC2)c2ccc(OC)cc2)cc1 [Compound 28, 7-(2-(4-(4,4-Bis(4-methoxyphenyl)butyl)piperazin-1-yl)ethoxy)-4-methyl-2H-chromen-2-one] | – | – | – | – |
| 51.9 | > 10000 | 8.2 | > 10000 | COc1cc(CN2CCN(CCOc3ccc4c(C)cc(=O)oc4c3)CC2)cc(OC)c1OC [Compound 16, 4-Methyl-7-(2-(4-(3,4,5-trimethoxybenzyl)piperazin-1-yl)ethoxy)-2H-chromen-2-one] | 1.0 | 1.4 | – | – |
| 229 | > 10000 | 409 | > 10000 | COc1cc(CN2CCN(CCOc3ccc4oc(=O)cc(C)c4c3)CC2)cc(OC)c1OC [Compound 22, 4-Methyl-6-(2-(4-(3,4,5-trimethoxybenzyl)piperazin-1-yl)ethoxy)-2H-chromen-2-one] | 2.8 | 2.7 | – | – |
| 304 | > 10000 | 242 | > 10000 | COc1cc(CN2CCN(CCCOc3ccc4oc(=O)cc(C)c4c3)CC2)cc(OC)c1OC [Compound 23, 4-Methyl-6-(3-(4-(3,4,5-trimethoxybenzyl)piperazin-1-yl)propoxy)-2H-chromen-2-one] | 1.6 | 1.8 | – | – |
| 441 | > 10000 | 302 | > 10000 | COc1cc(/C=C/CN2CCN(CCCOc3ccc4oc(=O)cc(C)c4c3)CC2)cc(OC)c1OC [Compound 11, (E)-4-Methyl-6-(3-(4-(3-(3,4,5-trimethoxyphenyl)allyl)piperazin-1-yl)propoxy)-2H-chromen-2-one] | 2.4 | 4.1 | – | – |
| 60.8 | > 10000 | 16.1 | > 10000 | COc1cc(CN2CCN(CCCOc3ccc4c(C)cc(=O)oc4c3)CC2)cc(OC)c1OC [Compound 17, 4-Methyl-7-(3-(4-(3,4,5-trimethoxybenzyl)piperazin-1-yl)propoxy)-2H-chromen-2-one] | 2.6 | 2.1 | – | – |

Second part, the compound before the results:

| Structure (SMILES) | Ki [2] [nM] | Ki [3] [nM] | Ki [4] [nM] | Ki [5] [nM] | RF (Reversal Fold: IC50 of doxorubicin alone / in presence of modulator) ([1]; compound at 1 µM) | RF (Reversal Fold: IC50 of doxorubicin alone / in presence of modulator) ([1]; compound at 3 µM) | toxicity [6] [%] | toxicity [7] [%] |
| --- | --- | --- | --- | --- | --- | --- | --- | --- |
| COc1cc(CN2CCN(CCCCOc3ccc4c(C)cc(=O)oc4c3)CC2)cc(OC)c1OC [Compound 18, 4-Methyl-7-(4-(4-(3,4,5-trimethoxybenzyl)piperazin-1-yl)butoxy)-2H-chromen-2-one] | 72.1 | > 10000 | 28.5 | > 10000 | 1.9 | 3.2 | – | – |
| COc1ccc(C(CCCN2CCN(CCOc3ccc4oc(=O)ccc4c3)CC2)c2ccc(OC)cc2)cc1 [Compound 31, 6-(2-(4-(4,4-Bis(4-methoxyphenyl)butyl)piperazin-1-yl)ethoxy)-2H-chromen-2-one] | 90.7 | > 10000 | 115 | > 10000 | 3.0 | 11.4 | – | – |
| COc1cc(CN2CCN(CCCCOc3ccc4ccc(=O)oc4c3)CC2)cc(OC)c1OC [Compound 15, 7-(4-(4-(3,4,5-Trimethoxybenzyl)piperazin-1-yl)butoxy)-2H-chromen-2-one] | 42.9 | > 10000 | 29 | > 10000 | 1.2 | 2.3 | ≥ 35 | ≥ 35 |
| COc1cc(CN2CCN(CCCCOc3ccc4oc(=O)cc(C)c4c3)CC2)cc(OC)c1OC [Compound 24, 4-Methyl-6-(4-(4-(3,4,5-trimethoxybenzyl)piperazin-1-yl)butoxy)-2H-chromen-2-one] | 99.5 | > 10000 | 205 | > 10000 | 1.4 | 2.5 | – | – |
| COc1ccc(C(CCCN2CCN(CCCCOc3ccc4c(C)cc(=O)oc4c3)CC2)c2ccc(OC)cc2)cc1 [Compound 30, 7-(4-(4-(4,4-Bis(4-methoxyphenyl)butyl)piperazin-1-yl)butoxy)-4-methyl-2H-chromen-2-one] | 82.4 | > 10000 | 124 | > 10000 | 7.7 | – | – | – |
| COc1cc(/C=C/CN2CCN(CCCCOc3ccc4ccc(=O)oc4c3)CC2)cc(OC)c1OC [Compound 3, (E)-7-(4-(4-(3-(3,4,5-Trimethoxyphenyl)allyl)piperazin-1-yl)butoxy)-2H-chromen-2-one] | 34.6 | > 10000 | 82 | > 10000 | 3.1 | 3.7 | – | – |
| COc1cc(/C=C/CN2CCN(CCCCOc3ccc4c(C)cc(=O)oc4c3)CC2)cc(OC)c1OC [Compound 6, (E)-4-Methyl-7-(4-(4-(3-(3,4,5-trimethoxyphenyl)allyl)piperazin-1-yl)butoxy)-2H-chromen-2-one] | 44.8 | > 10000 | 58.9 | > 10000 | 6.3 | 6.7 | – | – |
| COc1cc(CN2CCN(CCCCOc3ccc4oc(=O)ccc4c3)CC2)cc(OC)c1OC [Compound 21, 6-(4-(4-(3,4,5-Trimethoxybenzyl)piperazin-1-yl)butoxy)-2H-chromen-2-one] | 15.9 | > 10000 | 50.3 | > 10000 | 3.9 | 4.1 | – | – |
| COc1cc(CN2CCN(CCCOc3ccc4oc(=O)ccc4c3)CC2)cc(OC)c1OC [Compound 20, 6-(3-(4-(3,4,5-Trimethoxybenzyl)piperazin-1-yl)propoxy)-2H-chromen-2-one] | 22.4 | > 10000 | 72 | > 10000 | 2.3 | 2.4 | – | – |
